Consider 5 compounds from patent US11098017B2, “Compounds for treating disorders associated with abnormal steroidogenesis” (The General Hospital Corporation, priority 2017, dated 2021).

By IC50 is commonly meant the concentration needed to halve the response being measured. The ED50 is the midpoint of the dose-response relation. For orientation: EC50 means the concentration needed to bring the measured effect to its halfway point.

Series [1] has as its target T1, 11β-hydroxylase (Homo sapiens, UniProt P15538).
T1 sequence (P15538 25-503): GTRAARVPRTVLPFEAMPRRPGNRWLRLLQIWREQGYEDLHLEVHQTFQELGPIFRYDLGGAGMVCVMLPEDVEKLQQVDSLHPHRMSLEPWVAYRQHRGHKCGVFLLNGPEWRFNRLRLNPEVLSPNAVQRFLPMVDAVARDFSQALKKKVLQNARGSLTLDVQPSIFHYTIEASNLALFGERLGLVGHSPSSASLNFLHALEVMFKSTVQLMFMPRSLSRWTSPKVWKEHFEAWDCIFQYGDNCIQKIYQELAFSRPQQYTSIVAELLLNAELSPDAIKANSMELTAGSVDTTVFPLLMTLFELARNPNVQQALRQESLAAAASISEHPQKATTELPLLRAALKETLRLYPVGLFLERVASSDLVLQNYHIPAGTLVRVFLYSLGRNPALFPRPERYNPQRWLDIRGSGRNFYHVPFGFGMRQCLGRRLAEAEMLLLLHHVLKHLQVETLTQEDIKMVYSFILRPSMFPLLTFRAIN
Particulars: previously reported work; cited from earlier work.

For series [2], the system named is Sprague-Dawley rats. Nature of the series: Myoclonic movements in rats, two-way crossover. In kind it is in vivo, rat. The note with it: 3 mg/kg IV; for occurrence of myoclonus and LoRR: 30-minute observation, n=8. On the procedure:
Rats were immediately tested for LoRR and the number of myoclonic events was recorded during each 5-minute epoch for 30 minutes. A myoclonic event was defined as an unproductive (i.e., not associated with LoRR, feeding, or grooming behaviors) movement. Each distinct jerk or tremor constituted a single event. To avoid potentially confounding movements associated with bruxing, boggling, sniffing, and grooming, myoclonus was only considered to occur in the head and jaw when there was the presence of abnormal tongue lolling and jaw movement, or a sharp head movement out of sync with the rats breathing. At the end of the 30-minute observation period, rats were returned to their cages. After a 24-hour recovery period, each rat was crossed over to the other drug group and the experiment repeated.

In series [3] the target is T2, 11β-hydroxylase (Rattus norvegicus, UniProt P15393).
T2 construct: tissue BioreclamationlVT; host or cells: membranes (homogenate pellet) from Sprague-Dawley rat adrenal glands
T2 sequence (P15393 25-499): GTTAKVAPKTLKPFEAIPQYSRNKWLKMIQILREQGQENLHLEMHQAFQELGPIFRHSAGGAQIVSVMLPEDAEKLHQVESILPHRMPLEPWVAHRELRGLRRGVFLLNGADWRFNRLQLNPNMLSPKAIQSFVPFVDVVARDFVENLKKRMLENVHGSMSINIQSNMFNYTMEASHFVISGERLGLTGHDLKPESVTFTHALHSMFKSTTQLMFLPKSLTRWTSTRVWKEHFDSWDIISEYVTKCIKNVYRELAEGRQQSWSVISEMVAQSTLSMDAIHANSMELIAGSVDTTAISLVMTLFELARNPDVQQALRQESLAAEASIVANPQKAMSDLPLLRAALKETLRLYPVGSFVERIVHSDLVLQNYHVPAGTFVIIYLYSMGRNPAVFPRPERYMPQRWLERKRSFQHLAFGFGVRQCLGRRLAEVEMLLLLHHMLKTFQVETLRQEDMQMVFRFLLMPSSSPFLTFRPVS
Nature of the series: Displacement of [3H]-etomidate from adrenal membranes. In kind it is binding. On the procedure: Briefly, 4 adrenal glands were thawed for each preparation, placed on a glass stand, cut into pieces, and then added to ice-cold preparation buffer (HEPES 10 mM, EDTA 1 mM, leupeptin 10 μg/mL, chymostatin 10 μg/mL, pepstatin A 10 μg/mL, aprotinin 2 μg/mL, polymethanesulfonyl fluoride 1 mM and ethanol 10 μg/mL). After homogenization, carboxylesterases were inactivated by incubating with 1 mM diisopropyl fluorophosphate (Sigma-Aldrich) for 60 min. The mixture was then centrifuged and the resulting pellet was washed twice. The final pellet was then re-suspended in buffer by manual homogenization, passed through a 23-gauge needle three times, aliquoted into 1 mL eppendorf tubes, and stored at −80° C. until used. The protein concentration in these samples was quantified using a Pierce BCA Protein Assay Kit (ThermoFisher, Rockford, Ill., USA). All binding experiments were performed in glass vials at room temperature with the final concentration of protein adjusted to 0.07 mg/mL. The reported data were obtained using 3 separate preparations.
After equilibration, the mixture was passed through a pre-soaked (with 0.5% polyethylenimine in water for 2 h) 25 mm GF/B glass fiber filter under suction, the filter was immediately washed twice with 5 mL of assay buffer. After drying under a heat lamp for two hours, each filter was transferred to a scintillation vial. Liquiscint scintillation cocktail (National Diagnostics, Atlanta, Ga., USA) was added to the vial and the radioactivity in the vial quantified using a Packard Tri-Carb liquid scintillation counter (Meriden, Conn., USA). The concentration-response relationships for inhibition of [^3H]-etomidate by etomidate and dimethoxy-etomidate were fit to one and two site models, respectively, using Prism 6 for Mac OS X.

In series [4] the test system is Sprague-Dawley rats. Nature of the series: Loss of righting reflexes (LORR) assay, sedative-hypnotic activity. The note with it: for ED50: Rattus norvegicus, iv, read-out: ED50 for loss of righting reflexes; for dose producing loss of righting reflexes in all rats: IV.
Method: Briefly, the desired dose of drug in dimethyl sulfoxide vehicle (0.1-0.3 mL) was rapidly (<5 s) injected through a 24-gauge intravenous catheter placed in a tail vein. This was followed by a 0.5-mL normal saline flush. Immediately after injection, rats were turned supine. […] The duration of LORR was defined as the time from drug injection until the animal spontaneously righted itself onto all four legs.
Series [5] concerns adrenocortical steroid synthesis. Description: ACTH-stimulation test in dexamethasone-suppressed rats, plasma adrenocortical steroids by ELISA. The note with it: for inhibition of adrenocortical steroid synthesis (FIG. 10): rats, 3 mg/kg IV dose.
Method: Briefly, rats were pretreated with dexamethasone (0.2 mg/kg intravenously) to reduce endogenous ACTH production and minimize baseline adrenocortical steroid concentrations. Two hours later and after receiving a second dexamethasone dose, rats received ACTH1-24 (IV) and the desired dose of either etomidate or dimethoxy-etomidate solubilized in water containing a 1:1 molar ratio of Captisol (Ligand Pharmaceuticals, San Diego, Calif.) or water containing Captisol vehicle alone as a control. Fifteen minutes later, a blood sample was drawn and ACTH-stimulated adrenocortical steroid concentrations in the plasma were determined using enzyme-linked immunosorbent assays and a 96-well plate reader (Molecular Devices, Sunnyvale, Calif.).
Another series has as its target T3, α1β3γ2L GABAA receptor (Homo sapiens, UniProt P14867+P28472).
T3 construct: expressed in transfected cells; host or cells: Xenopus oocytes injected with mRNA
Nature of the series: GABAA receptor electrophysiology, potentiation of EC5 GABA-evoked currents in Xenopus oocytes. It is filed as cell-based. The note with it: for maximum peak current at high drug concentrations, % of that produced by 1 mM GABA: Hill fit, EC5 GABA + drug. On the procedure: Oocytes were then incubated in ND96 buffer (96 mM NaCl, 2 mM KCl, 1.8 mM CaCl2, 1 mM MgCl2, 5 mM HEPES, pH=7.4) containing 0.05 mg/mL of gentamicin for 18 to 48 hours at 18° C. before electrophysiological study. […] For each oocyte, a GABA concentration-peak current response curve was generated to define the GABA concentration that elicits 5% of the current evoked by 1 mM GABA (i.e., EC5 GABA). The effect of drug (etomidate or dimethoxy-etomidate) was then defined in that oocyte by perfusing it with EC5 GABA alone for 15-20 s followed immediately by EC5 GABA+drug at the desired concentration for 20-60 s. The resulting current response was then recorded. The peak current response recorded in the presence of EC5 GABA+drug was then normalized to the peak current response evoked by 1 mM GABA. Between electrophysiological recordings, oocytes were perfused with buffer for at least 3 min to remove GABA (and drug, if present) and to allow receptors to recover from desensitization.
In these fits, the minimum was constrained to 5% (by definition, for EC5 evoked currents).

The conditions of series [6]: 50 mg/kg intravenous dose; cited from earlier work.
Setting [7] is: 0.3 mg/kg IV, 15 min, vs vehicle control.
Setting [8] is: 3 mg/kg IV, 15 min, vs vehicle control.
[9] abbreviates: 50 mg/kg IV, vs vehicle control.

Read-outs that look alike come from different tables or passages of the source. Where only a bound is given, the exact number is not on record here.

T3 sequence (P14867 28-456): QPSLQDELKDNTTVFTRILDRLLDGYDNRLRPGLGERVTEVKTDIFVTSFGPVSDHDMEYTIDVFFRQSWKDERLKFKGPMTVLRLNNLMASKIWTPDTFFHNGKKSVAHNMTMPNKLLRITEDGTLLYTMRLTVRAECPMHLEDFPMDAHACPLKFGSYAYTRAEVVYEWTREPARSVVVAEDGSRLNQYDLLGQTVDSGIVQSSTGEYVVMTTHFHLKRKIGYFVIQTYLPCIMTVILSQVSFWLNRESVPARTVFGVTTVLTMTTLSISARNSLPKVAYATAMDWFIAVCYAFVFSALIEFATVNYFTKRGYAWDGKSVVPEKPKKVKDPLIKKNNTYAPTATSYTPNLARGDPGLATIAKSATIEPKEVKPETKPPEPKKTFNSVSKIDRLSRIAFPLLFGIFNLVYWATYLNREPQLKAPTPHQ
T3 sequence (P28472 26-473): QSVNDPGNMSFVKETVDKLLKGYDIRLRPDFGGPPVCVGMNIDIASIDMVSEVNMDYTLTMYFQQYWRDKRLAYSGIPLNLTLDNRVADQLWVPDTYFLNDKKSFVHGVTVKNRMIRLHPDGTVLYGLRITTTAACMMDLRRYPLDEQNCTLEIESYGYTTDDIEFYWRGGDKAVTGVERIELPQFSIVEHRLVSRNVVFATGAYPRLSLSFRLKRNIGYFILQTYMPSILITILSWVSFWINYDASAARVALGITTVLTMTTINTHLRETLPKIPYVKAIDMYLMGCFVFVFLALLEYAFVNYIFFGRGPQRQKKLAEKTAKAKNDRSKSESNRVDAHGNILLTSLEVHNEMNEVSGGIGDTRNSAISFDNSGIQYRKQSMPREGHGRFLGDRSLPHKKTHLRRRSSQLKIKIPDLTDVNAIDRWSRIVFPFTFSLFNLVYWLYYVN
T3 sequence (P18507 40-475 partner): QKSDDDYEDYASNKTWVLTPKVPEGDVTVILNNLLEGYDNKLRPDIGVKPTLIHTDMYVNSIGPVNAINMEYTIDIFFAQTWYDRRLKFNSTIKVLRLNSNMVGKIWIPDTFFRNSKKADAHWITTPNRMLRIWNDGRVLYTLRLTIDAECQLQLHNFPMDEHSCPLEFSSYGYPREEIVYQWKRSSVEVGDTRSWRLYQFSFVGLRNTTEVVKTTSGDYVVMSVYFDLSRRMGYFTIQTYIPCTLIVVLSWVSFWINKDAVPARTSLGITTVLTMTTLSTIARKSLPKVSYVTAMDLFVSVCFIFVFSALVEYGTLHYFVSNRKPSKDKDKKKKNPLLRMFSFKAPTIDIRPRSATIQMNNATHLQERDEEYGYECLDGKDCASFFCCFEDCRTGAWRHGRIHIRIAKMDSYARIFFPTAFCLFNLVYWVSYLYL

Regarding `CCOC(=O)c1cccn1[C@H](C)c1ccccc1` [carboetomidate, ethyl (R)-1-(1-phenylethyl)-1H-pyrrole-2-carboxylate], the “binding affinity to 11β-hydroxylase and adrenocortical inhibitory potency relative to etomidate” value at 11β-hydroxylase [1] was “reduced by three-orders of magnitude”.

Turning to `CCOC(=O)c1cncn1[C@H](C)c1cc(OC)cc(OC)c1` [dimethoxy-etomidate, Ethyl (R)-1-(1-(3,5-dimethoxyphenyl)ethyl)-1H-imidazole-5-carboxylate], in the series on Sprague-Dawley rats [2], the “occurrence of myoclonus and LoRR” value was “produced no myoclonic events or LoRR in any rat”. Moreover, the IC50 at 11β-hydroxylase [3] worked out at 7.9 nM; on 11β-hydroxylase [3] (read-out: IC50 for displacement of [3H]-etomidate, low affinity site, 2 nM [3H]-etomidate, two site fit), 4270 nM. For the same compound, the “high affinity site share of all sites” value on 11β-hydroxylase [3] (two site fit) is recorded as 55%. Moreover, the “time required for righting reflexes to return (LoRR duration)” value in the series on Sprague-Dawley rats [4] (100 mg/kg IV) is 2.2 ± 0.7 min. The ED50 in the series with Sprague-Dawley rats [4] came out at 72 ± 13 mg/kg. The “sedative-hypnotic potency compared to etomidate” value with Sprague-Dawley rats [4] (from LoRR ED50s) is listed as “two order of magnitude reduction”. Moreover, the “dose producing loss of righting reflexes in all rats” value with Sprague-Dawley rats [4] worked out at 100 mg/kg. Besides, the “effect on ACTH-stimulated plasma 11-deoxycorticosterone concentration” value in series [5] (0.3 mg/kg IV) is given as “neither etomidate nor dimethoxy-etomidate altered”; in series [5] (3 mg/kg IV), “without significantly affecting”. Also, the results for the “effect on ACTH-stimulated plasma pregnenolone concentration” value in series [5] (0.3 mg/kg IV), in series [5] (3 mg/kg IV) and in series [5] (50 mg/kg IV) were “neither etomidate nor dimethoxy-etomidate altered”, “without significantly affecting” and “unaffected”, respectively. For the same compound, the “effect on ACTH-stimulated plasma progesterone concentration” value in series [5] (0.3 mg/kg IV) was “neither etomidate nor dimethoxy-etomidate altered”; in series [5] (3 mg/kg IV) it was “without significantly affecting”; in series [5] (50 mg/kg IV), “unaffected”. The “ACTH-stimulated plasma corticosterone concentration” value in series [5] (0.3 mg/kg IV, 15 min) came to 56 ± 13 ng/mL; in series [5] (3 mg/kg IV, 15 min), 19±10 ng/m; in series [5] (50 mg/kg IV) it was 12 ± 1 ng/mL. Also, the “reduction of ACTH-stimulated plasma corticosterone concentration” value in series [5] (setting [7]) was 63%; in series [5] (setting [8]), 87%; in series [5] (setting [9]), 95%. Moreover, the “ACTH-stimulated plasma 11-deoxycorticosterone concentration” value in series [5] (50 mg/kg IV) came out at 24 ± 12 ng/mL. The “reduction of ACTH-stimulated plasma 11-deoxycorticosterone concentration” value in series [5] (setting [9]) is 69%. For the same compound, at α1β3γ2L GABAA receptor, the EC50 stood at 210000 nM. For the same compound, the “magnitude of peak current enhancement relative to that produced by the same concentration of etomidate” value at α1β3γ2L GABAA receptor (EC5 GABA evoked currents) was “≤ ⅛”. At α1β3γ2L GABAA receptor, the “maximum peak current at high drug concentrations, % of that produced by 1 mM GABA” value is 11%.

In the case of `CCOC(=O)c1cncn1[C@H](C)c1ccc2ccccc2c1` [Example 5, ethyl (R)-1-(1-(naphthalen-2-yl)ethyl)-1H-imidazole-5-carboxylate], the “inhibition of adrenocortical steroid synthesis (FIG. 10)” value in series [5] is “similarly inhibited adrenocortical steroid synthesis”.

For `CCOC(=O)c1cncn1[C@H](C)c1cccc2ccccc12` [Example 4, ethyl (R)-1-(1-(naphthalen-1-yl)ethyl)-1H-imidazole-5-carboxylate], the “inhibition of adrenocortical steroid synthesis (FIG. 10)” value in series [5] is “similarly inhibited adrenocortical steroid synthesis”.

Regarding `CCOC(=O)c1cncn1[C@H](C)c1ccccc1` [etomidate, ethyl (R)-1-(1-phenylethyl)-1H-imidazole-5-carboxylate, reference compound], the lethality entry in series [6] is “lethal”. For the same compound, the “maximum mean (±SEM) number of myoclonic events per rat” value with Sprague-Dawley rats [2] (5-10-minute epoch) came to 13.8±2.2. The “mean (±SEM) total number of myoclonic events in each rat” value in the series with Sprague-Dawley rats [2] (30-minute observation period) was determined as 34±2.4. For the same compound, in the series with Sprague-Dawley rats [2], the “occurrence of myoclonus and LoRR” value was “produced myoclonus and LORR in all rats”. The same compound yielded an IC50 at 11β-hydroxylase [3] of 21 nM. For the same compound, in the series on Sprague-Dawley rats [4] (3 mg/kg IV, highest etomidate dose studied), the “time required for righting reflexes to return (LoRR duration)” value worked out at 16.3 ± 0.5 min. Moreover, in the series on Sprague-Dawley rats [4], the ED50 amounted to 0.77 ± 0.17 mg/kg and the “dose producing loss of righting reflexes in all rats” value is reported as no less than 1 mg/kg. In addition, in series [5] (0.3 mg/kg IV), the “effect on ACTH-stimulated plasma 11-deoxycorticosterone concentration” value was “neither etomidate nor dimethoxy-etomidate altered”, the “effect on ACTH-stimulated plasma pregnenolone concentration” value is recorded as “neither etomidate nor dimethoxy-etomidate altered” and the “effect on ACTH-stimulated plasma progesterone concentration” value was “neither etomidate nor dimethoxy-etomidate altered”. For the same compound, the “reduction of ACTH-stimulated plasma corticosterone concentration” value in series [5] (setting [7]) is on record as “no significant effect”. Besides, in series [5] (3 mg/kg IV), the “effect on ACTH-stimulated plasma 11-deoxycorticosterone concentration” value is “without significantly affecting”, the “effect on ACTH-stimulated plasma pregnenolone concentration” value is reported as “without significantly affecting” and the “effect on ACTH-stimulated plasma progesterone concentration” value was “without significantly affecting”. Further, in series [5] (3 mg/kg IV, 15 min), the “ACTH-stimulated plasma corticosterone concentration” value was 19±11 ng/m. Besides, the “reduction of ACTH-stimulated plasma corticosterone concentration” value in series [5] (setting [8]) was found to be 87%. Further, the “maximum peak current at high drug concentrations, % of that produced by 1 mM GABA” value on α1β3γ2L GABAA receptor was 103%.
